Experimental data reported in ChEMBL document CHEMBL1132641, “Structure-activity relationships for a class of inhibitors of purine nucleoside phosphorylase” (J Med Chem, 1999).

Legend:
Test in all cases: biochemical
[1] = target: T1, Purine nucleoside phosphorylase (Bos taurus, UniProt P55859)
T1 sequence (P55859 whole entry): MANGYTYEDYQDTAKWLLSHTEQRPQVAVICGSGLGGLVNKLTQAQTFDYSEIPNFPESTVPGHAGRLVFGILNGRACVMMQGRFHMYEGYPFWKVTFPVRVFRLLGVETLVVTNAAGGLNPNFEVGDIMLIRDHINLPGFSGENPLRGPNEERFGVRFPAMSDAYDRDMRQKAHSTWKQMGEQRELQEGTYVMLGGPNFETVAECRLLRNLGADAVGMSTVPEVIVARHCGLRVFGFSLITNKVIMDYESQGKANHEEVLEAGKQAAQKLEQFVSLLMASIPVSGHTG
Description: Inhibitory activity against calf spleen purine nucleoside phosphorylase (PNP) using 2-amino-6-mercapto-7-methyl purine ribonucleoside (MESG) as substrate.

[2] = target: T1, Purine nucleoside phosphorylase; remark: listed apart in the source
Description: (§1) Inhibitory activity against calf spleen purine nucleoside phosphorylase (PNP) using inosine as substrate at a concentration of 10 uM.

[3] = target: T1, Purine nucleoside phosphorylase; remark: listed apart in the source
Description: as §1

Ki [1] [nM]	Ki [2] [nM]	IC50 [3] [nM]	Compound
681	982	2300	Nc1nc2[nH]c(N)nc2c(=O)[nH]1 [8-AMINOGUANINE]
5.4	18.7	24.5	Oc1[nH]cnc2c(Cc3ccccc3)cnc1-2
14.4	65	103	Nc1nc(O)c2[nH]cc(Cc3ccccc3Cl)c2n1
67500	10300	20200	Cc1nc2c(O)[nH]c(N)nc-2c1Cc1ccccc1
4.3	18.9	25.8	Nc1nc2c(Cc3cccc(Cl)c3)c[nH]c2c(=O)[nH]1
	24600	49600	Oc1ncn(Cc2ccccc2)c2ncnc1-2
31.8	84	182	Nc1nc2c(Cc3ccccc3O)c[nH]c2c(=O)[nH]1
333	335	640	Nc1nc(O)c2[nH]cc(C3CCCCC3)c2n1
3.5	15.6	22.6	Nc1nc(O)c2[nH]cc(Cc3ccsc3)c2n1
35	109	239	Nc1nc(O)c2[nH]cc(Cc3ccc(O)cc3)c2n1
3.3	11.4	19.2	CC1CCCC(Cc2c[nH]c3c(=O)[nH]c(N)nc23)C1 (centres undefined)

The next lines start with the molecule.

Compound	Ki [1] [nM]	Ki [2] [nM]	IC50 [3] [nM]
Nc1nc(O)c2[nH]cc(C3=CCCCC3)c2n1	500	862	1970
Nc1nc2c(Cc3cnccc3Cl)c[nH]c2c(=O)[nH]1	35.6	66.7	135
Nc1nc2c(Cc3ccc(-c4ccccc4)cc3)c[nH]c2c(=O)[nH]1			546
N#CCC(c1cccc(Cl)c1)c1c[nH]c2c(=O)[nH]c(N)nc12 (centres undefined)	4.6		16.3
Nc1nc(O)c2[nH]cc(Oc3ccccc3)c2n1			41.5
Nc1nc(O)c2[nH]cc(C(CC(=O)O)c3ccccc3)c2n1 (centres undefined)	61	9	46.8
Nc1nc2c(Cc3ccncc3)c[nH]c2c(=O)[nH]1	16.9	25.4	63.5
Nc1nc2c(CC3CCCS3)c[nH]c2c(=O)[nH]1 (centres undefined)	6	8.5	17.4
Nc1nc(O)c2nc(N)n(Cc3cccs3)c2n1	20.7	35.7	69.4
Nc1nc2c(Cc3ccccn3)c[nH]c2c(=O)[nH]1			15.3
Nc1nc(O)c2[nH]c(N)c(CC3CCCCC3)c2n1	766	885	1470
CC(C)c1ccc(Cc2c[nH]c3c(=O)[nH]c(N)nc23)cc1			96.6
Nc1nc2c(Cc3cccnc3)c[nH]c2c(=O)[nH]1 [PELDESINE]	3.1	13.5	27
N#CCC(c1cccnc1)c1cnc2c(O)[nH]cnc1-2 (centres undefined)			38.9
Nc1nc2c(Cc3ccc(OCc4ccccc4)cc3)c[nH]c2c(=O)[nH]1	20.3	37.8	124
Nc1nc2c(CC3CCCC3)c[nH]c2c(=O)[nH]1	6.2	9.1	20.2
